Results on 3 compounds are retold here after patent publication US6913882B2, “Methods of screening for B cell activity modulators” (Affymetrix, Inc., priority 1999, dated 2005).

pIC50: −log10 of the molar value. Where two headings read alike, the source gives them in different places.

For series [1], the system named is early response genes. Kind of series: B cell activation (HEL or anti-mu, 1 hr) with FK506, EGTA or PD98059, early response gene expression on arrays. The series is classed as cell-based, mice. As for the experimental part:
(§1) Splenic B cells from non-transgenic, Ig^HEL or sHEL/Ig^HEL transgenic mice were purified at room temperature in 1% bovine calf serum in RPMI. The spleen cells were stained with CD4, CD8 and Mac-1 FITC conjugated antibodies (Caltag) and depleted of T cells and macrophages with sheep anti-FITC magnetic beads (Perseptive Biosystems). The remaining cells were 85-95% B220 positive and were either lysed immediately (naive and tolerant cell preps) or stimulated in RPMI with 1% serum at 37° C. at 2-3×10^6 cells/ml. For stimulation experiments, HEL (Sigma) was used at 500 ng/ml, goat anti-mu (Jackson Labs) at 10 μg/ml, FK506 at 10 ng/ml, PD98059 (NEB) at 20 μM unless stated otherwise, ionomycin at 1 μM and EGTA at 3 mM. Cells were preincubated for 45 minutes with PD98059, 15 minutes with FK506 and 2 minutes with EGTA before addition of HEL or anti-mu. Mock stimulations were performed by addition of carrier alone for stimuli or inhibitors. At the end of the incubation, the cells were pelleted by centrifugation, resuspended in a minimal volume of medium (about 50 μl) by pipetting and lysed in 0.5-1 ml Trizol (Gibco BRL).
Trizol lysates were phenol-extracted and precipitated with isopropanol. Poly A+ RNA was purified with Oligotex (Qiagen). cDNA was synthesised with a Superscriptll cDNA synthesis kit (Gibco BRL) using a T7:(dT)24 oligo to prime the first strand and purified by phenol extraction and ethanol precipitation. […]
Each gene on the arrays was tiled as a collection of approximately 20 probe pairs. […] The perfect match—mismatch intensities (PM—MM) were calculated for each probe pair for each gene in each experiment. […] Positive t values associated with a probability of less than 0.1 were scored as increased, negative t values with a probability of less than 0.1 were scored as decreased. The number of increased and decreased probe pairs associated with each gene was determined and called npos and nneg respectively (of the approximately 20 probe pairs tiled for each gene). […] The probability of scoring npos or more of the total number of probe pairs was determined. […]

The test system of series [2] is Egr-1. The series can be described thus: B cell activation with PD98059 titration, Egr-1 upregulation monitored on expression arrays. The series is classed as cell-based, mice. Here is the method:
as §1
Trizol lysates were phenol-extracted and precipitated with isopropanol. Poly A+ RNA was purified with Oligotex (Qiagen). cDNA was synthesised with a Superscriptll cDNA synthesis kit (Gibco BRL) using a T7:(dT)24 oligo to prime the first strand and purified by phenol extraction and ethanol precipitation. The cDNA was used as a template for in vitro transcription (IVT) using the Megascript system (Ambion) with the inclusion of biotinylated CTP and UTP. […]
An intensity for each gene was calculated based on a trimmed mean of the PM—MM values. […]
In addition to NFAT, the ERK pathway is also activated in foreign or self antigen-stimulated cells. To determine downstream transcriptional effects of ERK, the effect of MEK, an ERK kinase, on B cell activation was determined. The MEK inhibitor PD98059 was titrated in B cell activation experiments and gene expression was monitored using one of the four arrays in the set (approximately 1600 genes). […]

For series [3], the system named is B cell. The series can be described thus: B cell death on activation in the presence of FK506. Type of series: cell-based.

In the case of `O=C(O)CN(CCOCCOCCN(CC(=O)O)CC(=O)O)CC(=O)O` [EGTA], the “effect on the transcript profile of stimulated naïve cells” value in series [1] (EGTA, FIG. 3C) is listed as “essentially the same effect on the transcript profile as FK506”.

Regarding `COc1cccc(-c2cc(=O)c3ccccc3o2)c1N` [PD98059], the “inhibition of upregulation of Egr-1” value in series [2] (20 μM PD98059) is recorded as “totally inhibited”. Further, the pIC50 in series [2] (B cell activation, PD98059 titrated, read-out: concentration at which upregulation of Egr-1 was 50% inhibited) is 5.00 to 5.30; in series [2] (anti-mu stimulation of non-transgenic B cells, FIG. 3D, read-out: IC50 for inhibition of upregulation of Egr-1), about 5.30. Further, in series [1] (FIG. 3D (PD98059), FIG. 3A (FK506)), the “sensitivity of induction of three transcripts (Egr-1, NAB2 and Gfi-1) upregulated by both self and foreign antigen” value is given as “sensitive”. For the same compound, in series [1] (PD98059 titration), the “sensitivity of regulation of other early response genes relative to Egr-1” value is given as “less sensitive”.

`C=CC[C@@H]1/C=C(\C)C[C@H](C)C[C@H](OC)[C@H]2O[C@@](O)(C(=O)C(=O)N3CCCC[C@H]3C(=O)O[C@H](/C(C)=C/[C@@H]3CC[C@@H](O)[C@H](OC)C3)[C@H](C)[C@@H](O)CC1=O)[C@H](C)C[C@@H]2OC` [FK506]: the “B cell death on activation” value in series [3] is “increased B cell death”.
